# Patent publication US12240862B2, “Inhibitors of peptidylarginine deiminases” (Gilead Sciences, Inc., priority 2020, dated 2025)
# pIC50: −log10 of the molar value.
# Biological target: T1, human PAD4 (Homo sapiens, UniProt Q9UM07)
# T1 construct: human PAD4 (NM_012387), A2P663, was PCR amplified; His-SUMO (N, cleaved yes); made in house; host or cells: E. coli BL21(DE3)
# Experiment: In vitro PAD4 BAEE biochemical assay
# Conditions: human PAD4, BAEE substrate; 5 nM PAD4, 2 mM calcium chloride, 3 mM BAEE; geometric mean of multiple experiments
# How it was run: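 Tag-free recombinant hPAD4 (5 nM), 2 mM CaCl2, 3 mM BAEE, 50 mM MOPS pH 7.6, 2 mM DTT; 30 min compound preincubation, 2 h reaction, all 25 °C. EDTA quench; ammonia read via o-phthalaldehyde amine coupling, 1 h.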
# T1 sequence (Q9UM07 2-663): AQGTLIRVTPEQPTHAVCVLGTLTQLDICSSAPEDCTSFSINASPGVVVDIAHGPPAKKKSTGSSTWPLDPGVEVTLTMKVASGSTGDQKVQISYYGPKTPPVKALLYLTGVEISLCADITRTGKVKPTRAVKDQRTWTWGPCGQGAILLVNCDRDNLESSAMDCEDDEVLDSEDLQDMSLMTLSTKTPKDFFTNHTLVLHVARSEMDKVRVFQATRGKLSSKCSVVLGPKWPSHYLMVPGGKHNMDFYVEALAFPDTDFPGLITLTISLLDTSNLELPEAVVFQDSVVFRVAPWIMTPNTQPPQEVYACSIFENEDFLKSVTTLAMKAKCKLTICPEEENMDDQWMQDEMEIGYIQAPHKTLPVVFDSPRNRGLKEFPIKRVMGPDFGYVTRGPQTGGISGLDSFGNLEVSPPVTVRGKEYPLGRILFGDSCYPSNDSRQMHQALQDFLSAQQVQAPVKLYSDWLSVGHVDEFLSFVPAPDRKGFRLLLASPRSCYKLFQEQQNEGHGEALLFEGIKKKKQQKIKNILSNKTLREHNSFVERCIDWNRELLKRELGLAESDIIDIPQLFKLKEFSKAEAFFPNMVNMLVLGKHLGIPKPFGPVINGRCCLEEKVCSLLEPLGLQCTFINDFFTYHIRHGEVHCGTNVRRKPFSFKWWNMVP
row,Structure (SMILES),pIC50
1,"CC1(c2c(-c3cc4ccc(N(C(F)F)S(C)(=O)=O)nc4n3CC3CC3)nc3cc(C(=O)N4CCC[C@@H](N)C4)ccn23)CC1 [Example 435, ~{N}-[2-[7-[(3~{R})-3-aminopiperidine-1-carbonyl]-3-(1-methylcyclopropyl)imidazo[1,2-a]pyridin-2-yl]-1-(cyclopropylmethyl)pyrrolo[2,3-b]pyridin-6-yl]-~{N}-(difluoromethyl) methanesulfonamide]",4.95
2,"COc1cc(C(=O)N[C@@H]2CC[C@@H]3CC[C@H]2N3)cc2nc(-c3cc4ccc(N(C(F)F)S(C)(=O)=O)nc4n3CC3CC3)c(C)n12 [Example 299, ~{N}-[(1~{R},2~{R}, 5~{S})-8-azabicyclo [3.2.1]octan-2-yl]-2-[1-(cyclopropylmethyl)-6-[difluoromethyl (methylsulfonyl)amino]pyrrolo[2,3-b]pyridin-2-yl]-5-methoxy-3-methylimidazo[1,2-a]pyridine-7-carboxamide]",5.09
3,"COc1cc(C(=O)N2[C@H]3CC[C@@H]2[C@H](N)C3)cc2nc(-c3cc4ccc([C@@H](C)NC(=O)N5CCOC[C@@H]5C(F)(F)F)nc4n3CC3CC3)c(C)n12 [Example 199, (3~{R})-~{N}-[(1~{R})-1-[2-[7-[(1~{R}, 2~{R},4~{S})-2-amino-7-azabicyclo[2.2.1]heptane-7-carbonyl]-5-methoxy-3-methylimidazo [1,2-a]pyridin-2-yl]-1-(cyclopropylmethyl)pyrrolo [2,3-b]pyridin-6-yl]ethyl]-3-(trifluoromethyl)morpholine-4-carboxamide]",7.45
4,"COc1cc(C(=O)N2[C@H]3CC[C@@H]2[C@H](N)C3)cc2nc(-c3cc4ccc(N5CC(c6ccccc6)CCS5(=O)=O)nc4n3CC3CC3)c(C)n12 (stereo partly shown) [Example 453, [(1~{R},2~{R},4~{S})-2-amino-7-azabicyclo [2.2.1]heptan-7-yl]-[2-[1-(cyclopropylmethyl)-6-(1,1-dioxo-4-phenylthiazinan-2-yl)pyrrolo[2,3-b]pyridin-2-yl]-5-methoxy-3-methylimidazo[1,2-a]pyridin-7-yl]methanone]",5.03
5,"COc1cc(C(=O)N2[C@H]3CC[C@@H]2[C@H](N)C3)cc2nc(-c3cc4ccc([C@@H](C)NC(=O)[C@@H]5CC5(F)F)nc4n3CC3CC3)c(C)n12 [Example 130, (1~{S})-~{N}-[(1~{R})-1-[2-[7-[(1~{R},2~{R},4~{S})-2-amino-7-azabicyclo [2.2.1]heptane-7-carbonyl]-5-methoxy-3-methylimidazo [1,2-a]pyridin-2-yl]-1-(cyclopropylmethyl)pyrrolo [2,3-b]pyridin-6-yl]ethyl]-2,2-difluorocyclopropane-1-carboxamide]",7.33
6,"COc1cc(C(=O)N2[C@H]3CC[C@@H]2[C@H](N)C3)cc2nc(-c3cc4ccc([C@@H](C)NC(=O)NC5(C)CC(F)(F)C5)nc4n3CC3CC3)c(C)n12 [Example 212, 1-[(1~{R})-1-[2-[7-[(1~{R},2~{R},4~{S})-2-amino-7-azabicyclo[2.2.1]heptane-7-carbonyl]-5-methoxy-3-methylimidazo [1,2-a]pyridin-2-yl]-1-(cyclopropylmethyl)pyrrolo [2,3-b]pyridin-6-yl]ethyl]-3-(3,3-difluoro-1-methylcyclobutyl)urea]",7.19
7,"CCc1ccc2cc(-c3nc4cc(C(=O)N5CCC[C@@H](N)C5)cc(OC)n4c3C)n(CC3CC3)c2c1F [Example 586, [(3~{R})-3-aminopiperidin-1-yl]-[2-[1-(cyclopropylmethyl)-6-ethyl-7-fluoroindol-2-yl]-5-methoxy-3-methylimidazo [1,2-a]pyridin-7-yl]methanone]",5.49
8,"COc1cc(C(=O)N2[C@H]3CC[C@@H]2[C@H](N)C3)cc2nc(-c3cc4ccc([C@@H](C)NC(=O)C(C)(C)C(F)(F)F)nc4n3CC3CC3)c(C)n12 [Example 171, ~{N}-[(1~{R})-1-[2-[7-[(1~{R},2~{R},4~{S})-2-amino-7-azabicyclo[2.2.1]heptane-7-carbonyl]-5-methoxy-3-methylimidazo [1,2-a]pyridin-2-yl]-1-(cyclopropylmethyl)pyrrolo [2,3-b]pyridin-6-yl]ethyl]-3,3,3-trifluoro-2,2-dimethylpropanamide]",6.75
9,"COc1cc(C(=O)N2[C@H]3CC[C@@H]2[C@H](N)C3)cc2nc(-c3cc4ccc([C@@H](C)NC(=O)N5CCOCC5)nc4n3CC3CC3)c(C)n12 [Example 241, ~{N}-[(1~{R})-1-[2-[7-[(1~{R},2~{R},4~{S})-2-amino-7-azabicyclo[2.2.1]heptane-7-carbonyl]-5-methoxy-3-methylimidazo [1,2-a]pyridin-2-yl]-1-(cyclopropylmethyl)pyrrolo [2,3-b]pyridin-6-yl]ethyl] morpholine-4-carboxamide]",7.26
10,"COc1cc(C(=O)N2C[C@H](N)CC[C@@H]2C)cc2nc(-c3cc4ccc(C#N)nc4n3CC3CC3)c(C)n12 [Example 610, 2-[7-[(2~{S},5~{R})-5-amino-2-methylpiperidine-1-carbonyl]-5-methoxy-3-methylimidazo[1,2-a]pyridin-2-yl]-1-(cyclopropylmethyl) pyrrolo[2,3-b] pyridine-6-carbonitrile]",5.33
11,"COc1cc(C(=O)N2[C@H]3CC[C@@H]2[C@H](N)C3)cc2nc(-c3cc4ccc(N(C)S(C)(=O)=O)nc4n3CC3CC3)c(C)n12 [Example 476, ~{N}-[2-[7-[(1~{R}, 2~{R},4~{S})-2-amino-7-azabicyclo[2.2.1]heptane-7-carbonyl]-5-methoxy-3-methylimidazo[1,2-a]pyridin-2-yl]-1-(cyclopropylmethyl)pyrrolo[2,3-b]pyridin-6-yl]-~{N}-methylmethanesulfonamide]",7.33
12,"COc1cc(C(=O)N2[C@H]3CC[C@@H]2[C@H](N)C3)cc2nc(-c3cc4ccc(OCc5ccccc5)nc4n3CC3CC3)c(C)n12 [Example 627, [(1~{R},2~{R},4~{S})-2-amino-7-azabicyclo [2.2.1]heptan-7-yl]-[2-[1-(cyclopropylmethyl)-6-phenylmethoxypyrrolo[2,3-b]pyridin-2-yl]-5-methoxy-3-methylimidazo[1,2-a]pyridin-7-yl]methanone]",5.47
13,"COc1cc(C(=O)N2CCC[C@@H](N)C2)cc2nc(-c3cc4ccc([C@@H](C)NC(=O)C56CC(F)(C5)C6)nc4n3CC3CC3)c(C3CC3)n12 [Example 145, ~{N}-[(1~{R})-1-[2-[7-[(3~{R})-3-aminopiperidine-1-carbonyl]-3-cyclopropyl-5-methoxyimidazo [1,2-a]pyridin-2-yl]-1-(cyclopropylmethyl)pyrrolo [2,3-b]pyridin-6-yl]ethyl]-3-fluorobicyclo[1.1.1]pentane-1-carboxamide]",6.67
14,"COc1cc(C(=O)N2CCC3(CCCNC3)C2)cc2nc(-c3cc4ccc([C@@H](C)NC(=O)C56CC(F)(C5)C6)nc4n3CC3CC3)c(C)n12 (stereo partly shown) [Example 5, ~{N}-[(1~{R})-1-[1-(cyclopropylmethyl)-2-[7-(2,9-diazaspiro[4.5]decane-2-carbonyl)-5-methoxy-3-methylimidazo[1,2-a]pyridin-2-yl]pyrrolo [2,3-b]pyridin-6-yl]ethyl]-3-fluorobicyclo[1.1.1] pentane-1-carboxamide]",4.72
15,"COc1cc(C(=O)N2[C@H]3CC[C@@H]2[C@H](N)C3)cc2nc(-c3cc4ccc([C@@H](C)NC(=O)C56CC(F)(C5)C6)nc4n3CC3CC3)c(C)n12 [Example 169, N—((R)-1-(2-(7-((1R,2R,4S)-2-amino-7-azabicyclo[2.2.1]heptane-7-carbonyl)-5-methoxy-3-methylimidazo[1,2-a]pyridin-2-yl)-1-(cyclopropylmethyl)-1H-pyrrolo[2,3-b]pyridin-6-yl)ethyl)-3-fluorobicyclo[1.1.1]pentane-1-carboxamide]",7.16
16,"COc1cc(C(=O)N2[C@H]3CC[C@@H]2[C@H](N)C3)cc2nc(-c3cc4ccc(N5[C@H](C)CCCS5(=O)=O)nc4n3CC3CC3)c(C)n12 [Example 463, [(1~{R},2~{R},4~{S})-2-amino-7-azabicyclo [2.2.1]heptan-7-yl]-[2-[1-(cyclopropylmethyl)-6-[(3~{R})-3-methyl-1,1-dioxothiazinan-2-yl]pyrrolo[2,3-b]pyridin-2-yl]-5-methoxy-3-methylimidazo [1,2-a]pyridin-7-yl] methanone]",6.88
17,"COc1cc(C(=O)N2CCC[C@@H](N)C2)cc2nc(-c3cc4ccc(C(C)CC(=O)N(C)C)nc4n3CC3CC3)c(C)n12 (stereo partly shown) [Example 536, 3-[2-[7-[(3~{R})-3-aminopiperidine-1-carbonyl]-5-methoxy-3-methylimidazo[1,2-a]pyridin-2-yl]-1-(cyclopropylmethyl)pyrrolo[2,3-b]pyridin-6-yl]-~{N},~{N}-dimethylbutanamide]",6.89
18,"COc1cc(C(=O)N2CC[C@H]3OCCN[C@H]3C2)cc2nc(-c3cc4ccc(N(C(F)F)S(C)(=O)=O)nc4n3CC3CC3)c(C)n12 [Example 383, ~{N}-[2-[7-[(4~{a}~{S},8~{a}~{R})-2,3,4,4~{a},5,7,8,8~{a}-octahydropyrido[4,3-b][1,4]oxazine-6-carbonyl]-5-methoxy-3-methylimidazo[1,2-a]pyridin-2-yl]-1-(cyclopropylmethyl)pyrrolo[2,3-b]pyridin-6-yl]-~{N}-(difluoromethyl) methanesulfonamide]",6.35
19,"COc1cc(C(=O)N2[C@H]3CC[C@@H]2[C@H](N)C3)cc2nc(-c3cc4ccc([C@@H](C)NC(=O)N5CC[C@H](F)C5)nc4n3CC3CC3)c(C3CC3)n12 [Example 216, (3~{S})-~{N}-[(1~{R})-1-[2-[7-[(1~{R},2~{R}, 4~{S})-2-amino-7-azabicyclo[2.2.1]heptane-7-carbonyl]-3-cyclopropyl-5-methoxyimidazo [1,2-a]pyridin-2-yl]-1-(cyclopropylmethyl)pyrrolo [2,3-b]pyridin-6-yl]ethyl]-3-fluoropyrrolidine-1-carboxamide]",7.32
